Here are results for 11 compounds from ChEMBL document CHEMBL1201862, “PubChem BioAssay data set” (2004).

Molecules are shown by their SMILES.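 Step 1: Grow cells in 96-well plates. Step 2: Expose to compound for 48 hours at 5 concentrations. Step 3: Interpolate endpoints linearly; if unreached, use highest concentration. Abbreviation: GI50, concentration required for 50% inhibition of growth.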 Calls of active or inactive are those of the source. Cut-off read from the data, not from the text of the source: active = GI50 up to about 1.1 µM and inactive = higher.

Some test systems named below: HOP-92; HCT-15; RPMI-8226; M14; NCI-H460; T47D; PC-3; SK-MEL-5; HL-60; MDA-MB-231; SR; HCT-116; HT-29; OVCAR-3; HOP-62; SN12C; SF-295; SW-620; TK-10; A549.
Common to all, as to assay: NCI anticancer screen, dose series, 48 h

Turning to `CC(=O)O[C@H]1CC[C@H]2[C@@H]3CC[C@H]4Nc5c(cnn5S(C)(=O)=O)C[C@]4(C)[C@H]3CC[C@]12C`, the GI50 in the assay on HOP-92 was 98.9 µM (inactive); in the assay with HCT-15, above 100 µM; with RPMI-8226, > 100 µM (inactive); with M14 it was 91.4 µM (inactive); in the assay with NCI-H460, 68.2 µM (inactive); with T47D, 37 µM (inactive). Besides, the GI50 in the assay on PC-3 is 64.4 µM (inactive); with SK-MEL-5, 84.3 µM (inactive); in the assay with HL-60, > 100 µM (inactive); with MDA-MB-231, > 100 µM (inactive); in the assay on SR it was > 100 µM (inactive); in the assay with HCT-116 it was 46.8 µM (inactive). Moreover, the GI50 is 48.5 µM (inactive) with HT-29; 27.5 µM (inactive) with OVCAR-3; 27.6 µM (inactive) in the assay with HOP-62; > 100 µM (inactive) with SN12C; 46.8 µM (inactive) in the assay with SF-295.
Take `COc1cc2c(cc1OC)C(=O)/C(=C/c1cc(OC)c(OC)c(OC)c1)C2`: the GI50 in the assay on HOP-92 is > 100 µM (inactive); with HCT-15 it was above 100 µM; in the assay with RPMI-8226, > 100 µM (inactive); in the assay on M14, 96.6 µM (inactive); with NCI-H460, > 100 µM (inactive); in the assay on T47D it was 90.2 µM (inactive). In addition, the GI50 with PC-3 is > 100 µM (inactive); in the assay with SK-MEL-5 it was > 100 µM (inactive); in the assay on HL-60, > 100 µM (inactive); in the assay on MDA-MB-231, 66.7 µM (inactive); with SR, > 100 µM (inactive); with HT-29 it was > 100 µM (inactive). Further, the GI50 with OVCAR-3 is > 100 µM (inactive); with HOP-62, 43.6 µM (inactive); with SN12C, > 100 µM (inactive); with SF-295, > 100 µM (inactive).
Consider `O=C1CN2C(Cl)(Cl)C2(c2ccccc2)c2cc(Cl)ccc2N1CC(F)(F)F` (configuration not stated), for which the GI50 is 13.6 µM (inactive) in the assay on HOP-92; 25.8 µM with HCT-15; 32.4 µM (inactive) in the assay with RPMI-8226; 24 µM (inactive) with M14; 16.1 µM (inactive) with NCI-H460; 17.9 µM (inactive) in the assay with SK-MEL-5. Moreover, the GI50 in the assay with HL-60 is > 10 µM (inactive); in the assay on SR, 28.9 µM (inactive); in the assay on HCT-116 it was 21.6 µM (inactive); in the assay on HT-29, 18.4 µM (inactive); with OVCAR-3 it was 18.8 µM (inactive); in the assay with HOP-62, 22.6 µM (inactive). In addition, the GI50 in the assay with SW-620 is 39.4 µM (inactive); with SN12C, 16.9 µM (inactive); in the assay on TK-10, 50.2 µM (inactive); with SF-295, 18.5 µM (inactive).
For `CC(C)C(/C=C/c1ccc(Cl)cc1)=N\NC(=O)N/N=C(/C=C/c1ccc(Cl)cc1)C(C)C`, the GI50 is 21.7 µM (inactive) in the assay with HOP-92; 71.4 µM with HCT-15; > 100 µM (inactive) with RPMI-8226; 24.2 µM (inactive) in the assay with M14; 23 µM (inactive) in the assay on NCI-H460; 40.8 µM (inactive) in the assay with T47D. Also, the GI50 with PC-3 was > 100 µM (inactive); in the assay with SK-MEL-5, 64.6 µM (inactive); with HL-60, > 100 µM (inactive); with MDA-MB-231, 22.3 µM (inactive); in the assay with SR, 30.8 µM (inactive); with HCT-116 it was 20.2 µM (inactive). Further, the GI50 is 42.3 µM (inactive) in the assay on HT-29; 19.6 µM (inactive) in the assay with OVCAR-3; 27.9 µM (inactive) with HOP-62; 19 µM (inactive) with A549; 82 µM (inactive) with SW-620; 18.4 µM (inactive) in the assay on SN12C. In addition, the GI50 in the assay on TK-10 was 25.3 µM (inactive); in the assay on SF-295 it was 22.9 µM (inactive).
On to `CC12CCC([C@H](Nc3cc(C(F)(F)F)cc(C(F)(F)F)c3)C1=O)C2(C)C` (some centres not stated), for which the GI50 in the assay on HCT-15 is above 100 µM; in the assay with RPMI-8226, 0.158 µM (active); in the assay with M14, > 100 µM (inactive); with T47D, > 100 µM (inactive); in the assay with PC-3, > 100 µM (inactive); in the assay with SK-MEL-5, > 100 µM (inactive). Besides, the GI50 with MDA-MB-231 was > 100 µM (inactive); in the assay with SR it was > 100 µM (inactive); with HCT-116, > 100 µM (inactive); in the assay with HT-29, 84.3 µM (inactive); in the assay on OVCAR-3, 16.8 µM (inactive); in the assay with HOP-62, 33.7 µM (inactive). The GI50 with A549 is > 100 µM (inactive); in the assay on SW-620 it was > 100 µM (inactive); with TK-10, > 100 µM (inactive); with SF-295, 37.4 µM (inactive).
`O=S1(=O)C[C@@H](NCc2ccccc2)[C@H](NCc2ccccc2)C1`: the GI50 in the assay with HOP-92 is > 100 µM (inactive); with RPMI-8226 it was > 100 µM (inactive); in the assay on M14 it was 53.5 µM (inactive); in the assay with NCI-H460, > 100 µM (inactive); with T47D, > 100 µM (inactive); with PC-3, > 100 µM (inactive). For the same compound, the GI50 with SK-MEL-5, with MDA-MB-231, with SR, with HCT-116, in the assay on HT-29 and in the assay with OVCAR-3 was > 100 µM (inactive) throughout. The GI50 in the assay with HOP-62 was 37.4 µM (inactive); in the assay with A549, > 100 µM (inactive); in the assay with SW-620, > 100 µM (inactive); with SN12C, > 100 µM (inactive); in the assay with TK-10, > 100 µM (inactive); with SF-295, > 100 µM (inactive).
On to `CN1C2CCC1C(CO)C(=O)C2` (configuration not stated), for which the GI50 was > 100 µM (inactive) in the assay on HOP-92; 24.9 µM in the assay on HCT-15; 21.3 µM (inactive) in the assay with RPMI-8226; > 100 µM (inactive) with NCI-H460; 21 µM (inactive) in the assay with T47D; > 100 µM (inactive) in the assay on PC-3. In addition, the GI50 is > 100 µM (inactive) in the assay with SK-MEL-5; 3.56 µM (inactive) with HL-60; > 100 µM (inactive) in the assay with MDA-MB-231; 26.1 µM (inactive) with SR; > 100 µM (inactive) in the assay with OVCAR-3; > 100 µM (inactive) in the assay on HOP-62. The values for the GI50 with SW-620, with TK-10 and with SF-295 were 20.4 µM (inactive), 22.9 µM (inactive) and > 100 µM (inactive), respectively.
On to `CN1C2CC(=O)CC1[C@H](O)[C@@H]2O`, for which the GI50 with HCT-15 is above 100 µM; in the assay with RPMI-8226, > 100 µM (inactive); with M14 it was > 100 µM (inactive); with NCI-H460 it was > 100 µM (inactive); with T47D, > 100 µM (inactive); with PC-3 it was > 100 µM (inactive). The GI50 with HL-60, in the assay with MDA-MB-231, with SR, in the assay with HCT-116, in the assay on HT-29 and in the assay on OVCAR-3 was > 100 µM (inactive) in each case. Further, the GI50 with HOP-62, in the assay on SW-620, in the assay on SN12C, in the assay on TK-10 and in the assay on SF-295 was > 100 µM (inactive) throughout.
Regarding `CC1OC1C(=O)C1(O)C(C)C(O)C23OC2(C(O)c2c(O)cccc2C3=O)C1O` (configuration not stated) [CERVICARCIN], the GI50 in the assay with HOP-92 is 0.033 µM (active); in the assay on HCT-15, 0.195 µM; in the assay on RPMI-8226 it was 0.0847 µM (active); in the assay with NCI-H460, 0.118 µM (active); in the assay on SK-MEL-5, 0.179 µM (active); with HL-60, 0.152 µM (active). The GI50 in the assay with HCT-116 was 0.226 µM (active); in the assay on HT-29, 0.173 µM (active); with OVCAR-3, 0.0638 µM (active); in the assay with HOP-62, 0.0895 µM (active); in the assay on A549, 0.0488 µM (active); in the assay with SW-620 it was 0.078 µM (active). Also, the GI50 is 0.0557 µM (active) with SN12C and 0.226 µM (active) in the assay with SF-295.
With `COc1ccc2c3c1O[C@H]1C[C@@H](O)C=C[C@@]31CCN(C)C2` [GALANTAMINE], the GI50 is > 150 µM (inactive) with HOP-92; above 150 µM in the assay with HCT-15; > 150 µM (inactive) with RPMI-8226; > 150 µM (inactive) in the assay on NCI-H460; > 150 µM (inactive) in the assay with SK-MEL-5; 141 µM (inactive) in the assay on HL-60. In addition, the GI50 in the assay with HCT-116, in the assay with HT-29, in the assay on OVCAR-3, in the assay on HOP-62, with A549 and in the assay on SW-620 was > 150 µM (inactive) each time. Further, the GI50 in the assay on SN12C and in the assay with SF-295 was > 150 µM (inactive) each time.
`O=c1cc[nH]c(=O)[nH]1` [URACIL]: the GI50 in the assay on HOP-92 was 311 µM (inactive); in the assay on HCT-15, 798 µM; in the assay with RPMI-8226, > 946 µM (inactive); in the assay with NCI-H460 it was 305 µM (inactive); in the assay on SK-MEL-5, 177 µM (inactive); with HL-60 it was 581 µM (inactive). In addition, the GI50 was 261 µM (inactive) with HCT-116; 509 µM (inactive) in the assay with HT-29; 667 µM (inactive) with OVCAR-3; 340 µM (inactive) with HOP-62; 435 µM (inactive) in the assay on A549; 361 µM (inactive) in the assay with SW-620. In addition, the GI50 was 502 µM (inactive) with SN12C and 382 µM (inactive) in the assay on SF-295.
